# Measured values: patent publication US7384931B2, “Constrained compounds as CGRP-receptor antagonists” (Bristol-Myers Squibb Company, priority 2004, dated 2008)
# Molecular target: CGRP receptor (Homo sapiens, UniProt O60894+Q16602)
# Test: CGRP radioligand binding assay ([125I]-CGRP displacement, SK-N-MC homogenate)
# Design: endogenous in cells; host or cells: SK-N-MC cells (homogenate/membrane pellet)
# Settings: displacement of [125I]-CGRP, room temperature 2 h
# Experimental: CGRP Binding Assay. Tissue Culture. SK—N-MC cells were grown at 37° C. in 5% CO2 as a monolayer in medium consisting of MEM with Earle's salts and L-glutamine (Gibco) supplemented with 10% fetal bovine serum (Gibco). Cell Pellets. The cells were rinsed twice with phosphate-buffered saline (155 mM NaCl, 3.3 mM Na2HPO4, 1.1 mM KH2PO4, pH 7.4), and incubated for 5-10 min. at 4° C. in hypotonic lysis buffer consisting of 10 mM Tris (pH 7.4) and 5 mM EDTA. The cells were transferred from plates to polypropylene tubes (16×100 mm) and homogenized using a polytron. Homogenates were centrifuged at 32,000×g for 30 min. The pellets were resuspended in cold hypotonic lysis buffer with 0.1% mammalian protease inhibitor cocktail (Sigma) and assayed for protein concentration. The SK—N-MC homogenate was then aliquoted and stored at −80° C. until needed.
# Radioligand Binding Assay. The compounds of invention were solubilized and carried through serial dilutions using 100% DMSO. Aliquots from the compound serial dilutions were further diluted 25 fold into assay buffer (50 mM Tris-Cl pH 7.5, 5 mM MgCl2, 0.005% Triton X-100) and transferred (volume 50 μl) into 96 well assay plates. [^125I]-CGRP (Amersham Biosciences) was diluted to 60 pM in assay buffer and a volume of 50 μl was added to each well. SK—N-MC pellets were thawed, diluted in assay buffer with fresh 0.1% mammalian protease inhibitor cocktail (Sigma), and homogenized again. SK—N-MC homogenate (5 μg/well) was added in a volume of 100 μl. The assay plates were then incubated at room temperature for 2 h. Assays were stopped by addition of excess cold wash buffer (20 mM Tris-Cl pH 7.5, 0.1% BSA) immediately followed by filtration over glass fiber filters (Whatman GF/B) previously soaked in 0.5% PEI. Non-specific binding was defined with 1 μM beta-CGRP. Protein bound radioactivity was determined using a gamma or scintillation counter. The IC50 was defined as the concentration of a compound of invention required to displace 50% of radioligand binding.
# CGRP receptor, sequence (Q16602 23-461): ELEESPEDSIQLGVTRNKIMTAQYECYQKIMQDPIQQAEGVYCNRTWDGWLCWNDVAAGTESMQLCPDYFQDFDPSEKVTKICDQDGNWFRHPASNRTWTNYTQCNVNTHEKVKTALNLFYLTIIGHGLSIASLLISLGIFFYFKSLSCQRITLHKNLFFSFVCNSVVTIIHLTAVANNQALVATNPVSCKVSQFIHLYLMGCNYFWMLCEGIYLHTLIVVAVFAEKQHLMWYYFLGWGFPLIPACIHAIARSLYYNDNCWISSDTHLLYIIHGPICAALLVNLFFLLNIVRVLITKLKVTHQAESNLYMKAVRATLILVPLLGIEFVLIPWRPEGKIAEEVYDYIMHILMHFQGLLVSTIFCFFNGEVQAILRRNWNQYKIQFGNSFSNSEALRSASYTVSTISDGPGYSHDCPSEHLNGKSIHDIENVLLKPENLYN
# CGRP receptor, sequence (O60894 27-148): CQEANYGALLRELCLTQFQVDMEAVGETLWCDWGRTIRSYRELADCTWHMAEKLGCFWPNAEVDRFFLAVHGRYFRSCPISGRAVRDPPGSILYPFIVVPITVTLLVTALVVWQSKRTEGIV
row,IC50,SMILES
1,100 to 1000 nM,"CC(C)(C)CN1Cc2c(ccc3[nH]ncc23)C[C@@H](CC(=O)N2CCC3(CC2)NC(=O)Nc2ccccc23)C1=O [Example 71, 1-[[7-(S)-9-(2,2-Dimethylpropyl)-3,6,7,8,9,10-hexahydro-8-oxoazepino[3,4-e]indazol-7-yl]acetyl]-spiro[piperidine-4,4′(1′H)-quinazolin]-2′(3′H)-one]"
2,> 1000 nM,"CC(C)(C)CN1Cc2c(cc(Cl)c3[nH]ncc23)C[C@@H](CC(=O)N2CCC(c3cc4ccccc4cc3O)CC2)C1=O [Example 74, 1-[[7-(S)-4-choro-9-(2,2-Dimethylpropyl)-3,6,7,8,9,10-hexahydro-8-oxoazepino[3,4-e]indazol-7-yl]acetyl]-4-(3-hydroxy-2-naphthalenyl)piperidine]"
3,0.1 to 10 nM,"CC(C)(C)CN1Cc2c(ccc3[nH]ncc23)CC(N/C(=N/C#N)N2CCC(N3Cc4ccccc4NC3=O)CC2)C1=O (stereo not drawn) [Example 88, (E, Z)-N′-cyano-N-(9-neopentyl-8-oxo-3,6,7,8,9,10-hexahydroazepino[3,4-e]indazol-7-yl)-4-(2-oxo-1,2-dihydroquinazolin-3(4H)-yl)piperidine-1-carboxamidine]"
4,0.1 to 10 nM,"O=C(C[C@@H]1Cc2cc(Cl)c3[nH]ncc3c2CN(CC(F)(F)F)C1=O)N1CCC(c2cc3ccccc3[nH]c2=O)CC1 [Example 90, (S)-4-chloro-7-(2-oxo-2-(4-(2-oxo-1,2-dihydroquinolin-3-yl)piperidin-1-yl)ethyl)-9-(2,2,2-trifluoroethyl)-6,7,9,10-tetrahydroazepino[3,4-e]indazol-8(3H)-one]"
5,100 to 1000 nM,"CC(C)(C)CN1Cc2c(cc(Cl)c3[nH]ncc23)C[C@@H](CC(=O)N2CCC(c3ccc(Cl)cc3Cl)CC2)C1=O [Example 93, (S)-4-chloro-7-(2-(4-(2,4-dichlorophenyl)piperidin-1-yl)-2-oxoethyl)-9-neopentyl-6,7,9,10-tetrahydroazepino[3,4-e]indazol-8(3H)-one]"
6,0.1 to 10 nM,"CC(C)(C)CN1Cc2c(cc(Br)c3[nH]ncc23)C[C@@H](CC(=O)N2CCC(c3cc4ccccc4[nH]c3=O)CC2)C1=O [Example 94, (S)-4-bromo-9-neopentyl-7-(2-oxo-2-(4-(2-oxo-1,2-dihydroquinolin-3-yl)piperidin-1-yl)ethyl)-6,7,9,10-tetrahydroazepino[3,4-e]indazol-8(3H)-one]"
7,0.1 to 10 nM,"O=C(C[C@@H]1Cc2cc(Br)c3[nH]ncc3c2CN(CC(F)(F)F)C1=O)N1CCC(c2cc3cccnc3[nH]c2=O)CC1 [Example 96, (S)-4-bromo-7-(2-oxo-2-(4-(2-oxo-1,2-dihydro-1,8-naphthyridin-3-yl)piperidin-1-yl)ethyl)-9-(2,2,2-trifluoroethyl)-6,7,9,10-tetrahydroazepino[3,4-e]indazol-8(3H)-one]"
8,10 to 100 nM,"O=C(C[C@@H]1Cc2cc(Br)c3[nH]ncc3c2CN(CC(F)(F)F)C1=O)N1CCC(c2cc3cccc(F)c3[nH]c2=O)CC1 [Example 98, (S)-4-bromo-7-(2-(4-(8-fluoro-2-oxo-1,2-dihydroquinolin-3-yl)piperidin-1-yl)-2-oxoethyl)-9-(2,2,2-trifluoroethyl)-6,7,9,10-tetrahydroazepino[3,4-e]indazol-8(3H)-one]"
9,0.1 to 10 nM,CC(C)(C)CN1Cc2c(cc(Cl)c3[nH]ncc23)C[C@@H](N/C(=N/C#N)N2CCC(c3cc4ccccc4[nH]c3=O)CC2)C1=O [Example 99]

# The next lines start with the compound.
row,SMILES,IC50
1,"CC(C)(C)CN1Cc2c(ccc3[nH]ncc23)C[C@@H](CC(=O)N2CCC(c3cnc4ccccc4c3)CC2)C1=O [Example 72, 1-[[7-(S)-9-(2,2-Dimethylpropyl)-3,6,7,8,9,10-hexahydro-8-oxoazepino[3,4-e]indazol-7-yl]acetyl]-4-(3-quinolinyl)piperidine]",> 1000 nM
2,"COc1cc2ccccc2cc1C1CCN(C(=O)C[C@@H]2Cc3cc(Cl)c4[nH]ncc4c3CN(CC(C)(C)C)C2=O)CC1 [Example 73, 1-[[7-(S)-4-choro-9-(2,2-Dimethylpropyl)-3,6,7,8,9,10-hexahydro-8-oxoazepino[3,4-e]indazol-7-yl]acetyl]-4-(3-methoxy-2-naphthalenyl)piperidine]",> 1000 nM
3,"O=C(C[C@@H]1Cc2cc(Cl)c3[nH]ncc3c2CN(CC(F)(F)F)C1=O)N1CCC(N2Cc3ccccc3NC2=O)CC1 [Example 75, 1-[[(7S)-4-Chloro-3,6,7,8,9,10-hexahydro-8-oxo-9-(2,2,2-trifluoroethly)azepino[3,4-e]indazol-7-yl]acetyl]-4-(1,4-dihydro-2-oxo-3(2H)-quinazolinyl)-piperidine]",0.1 to 10 nM
4,"CC(C)(C)CN1Cc2c(cc(Cl)c3[nH]ncc23)C[C@@H](CC(=O)N2CCC(C3C(=O)c4ccccc4NS3(=O)=O)CC2)C1=O (stereo partly drawn) [Example 76, 1-[[7-(S)-4-choro-9-(2,2-Dimethylpropyl)-3,6,7,8,9,10-hexahydro-8-oxoazepino[3,4-e]indazol-7-yl]acetyl]-4-(3,4-dihydro-2,2-dioxido-4-oxo-1H-2,1-benzothiazin-3-yl)piperidine]",10 to 100 nM
5,CC(C)(C)CN1Cc2c(cc(Cl)c3[nH]ncc23)C[C@@H](CC(=O)N2CCC(N3Cc4cccnc4NC3=O)CC2)C1=O [Example 78],0.1 to 10 nM
6,"CC(C)(C)CN1Cc2c(cc(Cl)c3[nH]ncc23)C[C@@H](CC(=O)N2CCC(c3cc4cccnc4[nH]c3=O)CC2)C1=O [Example 79, 1-[[(7S)-4-chloro-9-(2,2-dimethylpropyl)-3,6,7,8,9,10-hexahydro-8-oxoazepino[3,4-e]indazol-7-yl]acetyl]-4-(1,2-dihydro-2-oxo-1,8-naphthyridin-3-yl)-piperidine]",0.1 to 10 nM
7,O=C(C[C@@H]1Cc2cc(Cl)c3[nH]ncc3c2CN(Cc2ccncc2)C1=O)N1CCC(c2cc3ccccc3c[n+]2[O-])CC1 [Example 82],0.1 to 10 nM
8,"O=C(C[C@@H]1Cc2cc(Cl)c3[nH]ncc3c2CN(Cc2ccncc2)C1=O)N1CCC(c2ccc(-c3ccccc3)c[n+]2[O-])CC1 [Example 83, (S)-1-[[(7S)-4-chloro-3,6,7,8,9,10-hexahydro-8-oxo-9-(4-pyridinylmethyl)azepino[3,4-e]indazol-7-yl]acetyl]-4-(1-oxido-5-phenyl-2-pyridinyl)-piperidine]",100 to 1000 nM
9,"CC(C)(C)CN1Cc2c(cc(Cl)c3[nH]ncc23)C[C@@H](CC(=O)N2CCC(c3ccc(-c4ccccc4)c[n+]3[O-])CC2)C1=O [Example 84, (S)-1-[[(7S)-4-chloro-9-(2,2-dimethylpropyl)-3,6,7,8,9,10-hexahydro-8-oxoazepino[3,4-e]indazol-7-yl]acetyl]-4-(1-oxido-5-phenyl-2-pyridinyl)-piperidine]",100 to 1000 nM
10,"O=C(C[C@@H]1Cc2cc(Cl)c3[nH]ncc3c2CN(CC(F)(F)F)C1=O)N1CCC(c2cc3cccnc3[nH]c2=O)CC1 [Example 89, (S)-4-chloro-7-(2-oxo-2-(4-(2-oxo-1,2-dihydro-1,8-naphthyridin-3-yl)piperidin-1-yl)ethyl)-9-(2,2,2-trifluoroethyl)-6,7,9,10-tetrahydroazepino[3,4-e]indazol-8(3H)-one]",0.1 to 10 nM
11,"O=C(C[C@@H]1Cc2cc(Cl)c3[nH]ncc3c2CN(CC(F)(F)F)C1=O)N1CCC(c2cc3cccc(F)c3[nH]c2=O)CC1 [Example 91, (S)-4-chloro-7-(2-(4-(8-fluoro-2-oxo-1,2-dihydroquinolin-3-yl)piperidin-1-yl)-2-oxoethyl)-9-(2,2,2-trifluoroethyl)-6,7,9,10-tetrahydroazepino[3,4-e]indazol-8(3H)-one]",0.1 to 10 nM
12,CC(C)(C)CN1Cc2c(cc(Cl)c3[nH]ncc23)C[C@@H](CC(=O)N2CCC(C3=Cc4ccccc4NS3(=O)=O)CC2)C1=O [Example 92],10 to 100 nM
13,"CC(C)(C)CN1Cc2c(cc(Br)c3[nH]ncc23)C[C@@H](CC(=O)N2CCC(c3cc4cccc(F)c4[nH]c3=O)CC2)C1=O [Example 95, (S)-4-bromo-7-(2-(4-(8-fluoro-2-oxo-1,2-dihydroquinolin-3-yl)piperidin-1-yl)-2-oxoethyl)-9-neopentyl-6,7,9,10-tetrahydroazepino[3,4-e]indazol-8(3H)-one]",10 to 100 nM
14,"O=C(C[C@@H]1Cc2cc(Br)c3[nH]ncc3c2CN(CC(F)(F)F)C1=O)N1CCC(c2cc3ccccc3[nH]c2=O)CC1 [Example 97, (S)-4-bromo-7-(2-oxo-2-(4-(2-oxo-1,2-dihydroquinolin-3-yl)piperidin-1-yl)ethyl)-9-(2,2,2-trifluoroethyl)-6,7,9,10-tetrahydroazepino[3,4-e]indazol-8(3H)-one]",0.1 to 10 nM
15,"Cc1cc2c(c3cn[nH]c13)CN(CC(C)(C)C)C(=O)[C@H](CC(=O)N1CCC(c3cc4ccccc4[nH]c3=O)CC1)C2 [Example 100, (S)-4-methyl-9-neopentyl-7-(2-oxo-2-(4-(2-oxo-1,2-dihydroquinolin-3-yl)piperidin-1-yl)ethyl)-6,7,9,10-tetrahydroazepino[3,4-e]indazol-8(3H)-one]",0.1 to 10 nM
